Values joined by “and” are separate entries in the source; they are usually repeats but may differ in a detail not shown here. Equal values may be shown once.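 Each compound was tested at five concentrations against cells in 96-well plates for 48 hours. The concentration for 50% growth inhibition is given as GI50. TGI: total growth inhibition.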
What was measured:
Assay in all cases: NCI-60 cell line screen, 48 h
[1] = test system: OVCAR-4 ovarian
[2] = test system: CAKI-1 renal
[3] = test system: NCI/ADR-RES ovarian
[4] = test system: IGROV1 ovarian
[5] = test system: RPMI-8226 leukemia
[6] = test system: TK-10 renal
[7] = test system: SF-295 CNS
[8] = test system: HT29 colon
[9] = test system: MCF7 breast
[10] = test system: UACC-257 melanoma

Row | Structure (SMILES) | GI50 [1] | TGI [1] | GI50 [2] | TGI [2] | GI50 [3] | TGI [3] | GI50 [4] | TGI [4] | GI50 [5] | TGI [5] | GI50 [6] | TGI [6] | GI50 [7] | TGI [7] | GI50 [8] | GI50 [9] | TGI [9] | GI50 [10] | TGI [10] | TGI [8]
1 | COC(=O)c1c2c(c(C)[n+]([O-])c1C)C(=O)C=C(NCc1ccc(F)cc1)C2=O | 0.254 µM | 1.1 µM | 0.527 µM | 2.76 µM | 0.432 µM | 5.38 µM | 0.363 µM | 1.61 µM | 1.25 µM | 4.81 µM | 3.3 µM | 9.55 µM | 0.592 µM | 1.94 µM | 0.369 µM | 0.276 µM | 1.04 µM | 0.258 µM | 0.822 µM | –
2 | CN(C)CC[C@H](CSc1ccccc1)Nc1ccc(S(=O)(=O)NC(=O)c2ccc(N3CCN(Cc4ccccc4-c4ccc(Cl)cc4)CC3)cc2)cc1[N+](=O)[O-] | 3.04 µM | > 29.6 µM | 6.71 µM | > 100 µM | > 61.6 µM | > 100 µM | 3.05 µM | > 51.6 µM | 2.56 µM | > 100 µM | 2.44 µM | 5.37 µM | 3.6 µM | > 100 µM | 2.17 µM | 3 µM | > 41.3 µM | 1.79 µM | 6.16 µM | 5.02 µM
3 | NS(=O)(=O)c1ccc(N=Nc2c(O)c(C(=O)O)cc3ccccc23)cc1 | – | > 100 µM | – | > 100 µM | – | > 100 µM | – | > 100 µM | – | > 100 µM | – | > 100 µM | – | > 100 µM | – | – | > 100 µM | – | > 100 µM | > 100 µM
4 | Cc1nnc(Nc2ccc(NC(=O)Nc3ccc(Cl)cc3)cc2)c2ccccc12 | 2.79 µM | 8.36 µM | 3.49 µM | 12.8 µM | 3.63 µM | 14.9 µM | 3.98 µM | 19.5 µM | 2.6 µM | 6.48 µM | 3.19 µM | 9.42 µM | 2.04 µM | 4.21 µM | 1.78 µM | 2.21 µM | 10.9 µM | 2.39 µM | 5.3 µM | 3.67 µM
5 | O=C(Cc1ccc(F)c(Cl)c1)Nc1cc(C2(C(F)(F)F)CC2)nn1CC1CCCCC1 | 3.27 µM | > 15 µM | 2.93 µM | 8.79 µM | 3.88 µM | > 15 µM | 4.64 µM | > 15 µM | 3.06 µM | 9.43 µM | 4.78 µM | > 15 µM | 3.62 µM | > 15 µM | 3.96 µM | 4.01 µM | > 15 µM | 3.38 µM | 11.2 µM | > 15 µM
6 | CCn1c(O)c(/C=N/NC(=O)C(C)c2ccc(CC(C)C)cc2)sc1=S (stereo not drawn) | 1.08 µM | > 52 µM | 0.331 µM | > 33.7 µM | 0.276 µM | > 38.8 µM | 0.419 µM | > 36.9 µM | 0.425 µM | 4.83 µM | 2.28 µM | > 50.7 µM | 0.337 µM | > 34.7 µM | 2.42 µM | 0.346 µM | > 35.1 µM | 3.16 µM | > 74.9 µM | > 37.8 µM
7 | COC(=O)c1ccc2c(c1)C(=O)c1c-2n(CCCN=[N+]=[N-])c(=O)c2cc(OC)c(OC)cc12 | > 100 µM | > 100 µM | > 100 µM | > 100 µM | > 100 µM | > 100 µM | > 100 µM | > 100 µM | > 100 µM | > 100 µM | > 100 µM | > 100 µM | > 100 µM | > 100 µM | > 100 µM | > 100 µM | > 100 µM | > 100 µM | > 100 µM | > 100 µM
8 | CCC[CH2][Sn]([CH2]CCC)([O]C(=O)c1ccc(OC)c(OC)c1OC)[O][Sn]([CH2]CCC)([CH2]CCC)[O]C(=O)c1ccc(OC)c(OC)c1OC | 0.618 µM | 1.87 µM | 0.0961 µM | 0.506 µM | 0.843 µM | 2.14 µM | 0.891 µM | 2.47 µM | 0.104 µM | 0.846 µM | 0.306 µM | 0.716 µM | 0.568 µM | 1.5 µM | 0.831 µM | 0.133 µM | 1.28 µM | 0.217 µM | 0.549 µM | 2.31 µM
9 | NC(N)=N/N=C/c1c(Cl)cccc1Cl | 25.3 µM | > 100 µM | 23 µM | 95.3 µM | 28.9 µM | > 100 µM | 31.2 µM | > 100 µM | 40.7 µM | > 100 µM | 21.9 µM | 66.3 µM | 12.4 µM | 30.2 µM | 17 µM | 17.2 µM | 41.5 µM | 12.3 µM | 27.3 µM | 43.4 µM
10 | COc1cc(N(CCC#N)CCC#N)ccc1/C(N=Nc1ccc(Cl)cc1)=N/NC(=O)c1cc(Br)ccc1O | 11.1 µg/mL | 37 µg/mL | 51.2 µg/mL | > 150 µg/mL | 53.2 µg/mL | > 150 µg/mL | 54.5 µg/mL | > 150 µg/mL | 102 µg/mL | > 150 µg/mL | – | – | 79.4 µg/mL | > 150 µg/mL | 45.5 µg/mL | 44.1 µg/mL | > 150 µg/mL | > 150 µg/mL | > 150 µg/mL | > 150 µg/mL
11 | O=C(Nc1cc(C(F)(F)F)cc(C(F)(F)F)c1)c1cc(Cl)ccc1O | 0.294 µM and 0.288 µM | > 10 µM and 13.4 µM | 0.212 µM and 0.18 µM | 0.644 µM and 0.677 µM | 0.227 µM and 0.257 µM | > 2.76 µM and 3.87 µM | 0.271 µM and 0.357 µM | > 2.34 µM and 11.9 µM | 0.116 µM and 0.155 µM | 0.578 µM and 0.713 µM | 0.442 µM and 0.387 µM | > 10 µM and 11.1 µM | 0.179 µM and 0.173 µM | 0.479 µM and 0.402 µM | 0.339 µM and 0.401 µM | 0.302 µM and 0.269 µM | > 10 µM and 5.26 µM | 0.196 µM and 0.194 µM | 0.75 µM and 1.21 µM | > 10 µM and 12 µM
12 | O=C(Nc1ccc(Br)cc1F)c1cc(Cl)ccc1O | 0.509 µM | > 100 µM | 0.319 µM | 2.85 µM | 0.749 µM | 5.67 µM | 0.388 µM | > 100 µM | 0.342 µM | 1.88 µM | 3.5 µM | 10.2 µM | 1.77 µM | 3.65 µM | 3.09 µM | 1.84 µM | > 100 µM | 0.731 µM | 4.82 µM | 31.5 µM
13 | O=c1oc2ccc(-c3ccc(F)cc3F)cc2c(=O)n1-c1cccc(C(F)(F)F)c1 | 1.67 µM | 13.6 µM | 1.22 µM | 5.19 µM | 2.2 µM | 8.9 µM | 1.66 µM | 22.2 µM | 0.395 µM | 3.26 µM | 3.52 µM | 15.8 µM | 1.78 µM | 4.14 µM | 3.24 µM | 3.22 µM | > 100 µM | 0.274 µM | 3.31 µM | 11.7 µM
14 | S=c1[nH]c(=S)c2cc3ccccc3nc2[nH]1 | > 100 µM | > 100 µM | > 100 µM | > 100 µM | > 100 µM | > 100 µM | 23 µM | > 100 µM | 7.96 µM | > 100 µM | 94.2 µM | > 100 µM | > 100 µM | > 100 µM | > 100 µM | 5.33 µM | > 100 µM | > 100 µM | > 100 µM | > 100 µM
15 | COc1ccc2nc3ccccc3c(NCc3ccc(F)cc3)c2c1 | 2.27 µM | 8.23 µM | 1.73 µM | 7.05 µM | 1.82 µM | 8.24 µM | 1.8 µM | 6.65 µM | 1.24 µM | 3.06 µM | 2.89 µM | 10.3 µM | 1.58 µM | 6.48 µM | 1.48 µM | 1.17 µM | 3.52 µM | 1.8 µM | 6.68 µM | 5.19 µM
16 | COc1cc(C(=O)N2CCN(C(=O)c3cc(OC)c(OC)c(OC)c3)C2=S)cc(OC)c1OC | 16.9 µM | 50.1 µM | 12.3 µM | 24.7 µM | 26.8 µM | 74.5 µM | 24.7 µM | 56.6 µM | – | 26.1 µM | 17 µM | 37.3 µM | 19 µM | 43.7 µM | 22.7 µM | 5.23 µM | 27.6 µM | 21.7 µM | 43.9 µM | 53.2 µM
17 | CCOC(=O)N[C@H]1CCc2cc(OC)c(OC)c(OC)c2-c2ccc(SC)c(=O)cc21 | 0.0677 µM | > 100 µM | < 0.0182 µM | – | 0.0319 µM | > 100 µM | – | > 100 µM | – | > 100 µM | 7.23 µM | > 100 µM | – | – | – | – | > 100 µM | > 70.5 µM | > 100 µM | –
18 | COc1ccc(-c2nnc3n(C)c(=O)c4ccccc4n23)cc1N | 16.3 µM | > 100 µM | 1.95 µM | > 100 µM | 0.0656 µM | > 100 µM | 14.7 µM | > 100 µM | 3.88 µM | > 100 µM | – | – | 0.0499 µM | > 100 µM | 0.0432 µM | 0.043 µM | > 100 µM | – | – | > 100 µM
19 | NC(N)=NCCCC(=O)O | – | > 100 µM | – | > 100 µM | – | > 100 µM | – | > 100 µM | – | > 100 µM | – | > 100 µM | – | > 100 µM | – | – | > 100 µM | – | – | > 100 µM

Reference: PubChem BioAssay (NCI)
